# Source: ChEMBL document CHEMBL5696442, “Discovery of type II inhibitors of TGFβ-activated kinase 1 (TAK1) and mitogen-activated protein kinase kinase kinase kinase 2 (MAP4K2)” (J Med Chem, 2015)
# The source made the active and inactive calls. The calls are words filed in the database; no cut-off is given here.
# Tests used:
# [1] = Inhibition of KHS2 Lys1 labeling site in human Huh-7 cells at 1 uM by KiNativ Profiling analysis relative to control; conditions: condition cancer
# [2] = target: Macrophage-stimulating protein receptor (Homo sapiens) (UniProt Q04912); experiment: Inhibition of MST1R (unknown origin) at 1 uM by Ambit Kinomescan binding assay relative to control
# Sequence of Macrophage-stimulating protein receptor (Homo sapiens) (Q04912 25-304 limits assumed): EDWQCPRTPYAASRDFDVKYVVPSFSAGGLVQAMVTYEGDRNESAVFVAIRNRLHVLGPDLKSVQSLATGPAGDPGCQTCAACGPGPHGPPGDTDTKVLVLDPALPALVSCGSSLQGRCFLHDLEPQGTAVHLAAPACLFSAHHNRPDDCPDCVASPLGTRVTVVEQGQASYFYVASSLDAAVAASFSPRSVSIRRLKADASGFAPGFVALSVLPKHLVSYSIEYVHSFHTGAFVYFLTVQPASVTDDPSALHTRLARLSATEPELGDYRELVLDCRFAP
# Sequence of Macrophage-stimulating protein receptor (Homo sapiens) (Q04912 310-1400 limits assumed): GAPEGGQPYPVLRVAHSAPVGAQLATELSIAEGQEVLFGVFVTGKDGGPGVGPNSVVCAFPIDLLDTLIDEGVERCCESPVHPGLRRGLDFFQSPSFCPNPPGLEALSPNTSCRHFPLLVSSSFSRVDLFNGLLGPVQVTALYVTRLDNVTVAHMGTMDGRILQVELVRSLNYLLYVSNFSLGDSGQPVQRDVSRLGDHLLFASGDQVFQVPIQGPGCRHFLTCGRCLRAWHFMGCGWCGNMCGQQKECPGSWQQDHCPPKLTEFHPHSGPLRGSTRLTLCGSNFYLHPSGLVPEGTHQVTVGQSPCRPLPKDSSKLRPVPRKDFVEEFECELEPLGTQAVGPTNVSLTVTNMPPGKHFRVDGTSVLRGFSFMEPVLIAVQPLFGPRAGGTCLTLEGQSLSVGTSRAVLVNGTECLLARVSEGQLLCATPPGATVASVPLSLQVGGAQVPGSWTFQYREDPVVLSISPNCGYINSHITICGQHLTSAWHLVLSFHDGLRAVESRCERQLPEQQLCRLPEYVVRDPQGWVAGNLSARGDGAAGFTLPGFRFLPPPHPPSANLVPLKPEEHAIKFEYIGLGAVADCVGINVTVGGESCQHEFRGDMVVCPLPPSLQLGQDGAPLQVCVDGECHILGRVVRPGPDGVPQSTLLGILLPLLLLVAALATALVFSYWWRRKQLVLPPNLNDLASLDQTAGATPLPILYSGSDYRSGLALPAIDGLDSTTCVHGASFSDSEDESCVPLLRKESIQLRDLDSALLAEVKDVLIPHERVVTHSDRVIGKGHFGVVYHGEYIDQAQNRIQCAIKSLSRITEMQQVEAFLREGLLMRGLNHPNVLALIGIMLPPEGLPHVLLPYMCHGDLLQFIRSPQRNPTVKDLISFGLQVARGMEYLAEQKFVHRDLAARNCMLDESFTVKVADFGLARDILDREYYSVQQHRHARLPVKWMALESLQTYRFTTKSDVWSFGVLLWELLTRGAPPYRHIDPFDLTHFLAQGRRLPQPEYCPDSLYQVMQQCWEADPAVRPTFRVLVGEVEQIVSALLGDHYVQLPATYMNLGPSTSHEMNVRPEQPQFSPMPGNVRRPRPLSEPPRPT
# [3] = target: T1, Serine/threonine-protein kinase 3 (Homo sapiens) (UniProt Q13188); experiment: Inhibition of MST2 Lys1 labeling site in human A-375 cells at 0.5 uM by KiNativ Profiling analysis relative to control; assay type: cell-based
# T1 sequence (whole entry): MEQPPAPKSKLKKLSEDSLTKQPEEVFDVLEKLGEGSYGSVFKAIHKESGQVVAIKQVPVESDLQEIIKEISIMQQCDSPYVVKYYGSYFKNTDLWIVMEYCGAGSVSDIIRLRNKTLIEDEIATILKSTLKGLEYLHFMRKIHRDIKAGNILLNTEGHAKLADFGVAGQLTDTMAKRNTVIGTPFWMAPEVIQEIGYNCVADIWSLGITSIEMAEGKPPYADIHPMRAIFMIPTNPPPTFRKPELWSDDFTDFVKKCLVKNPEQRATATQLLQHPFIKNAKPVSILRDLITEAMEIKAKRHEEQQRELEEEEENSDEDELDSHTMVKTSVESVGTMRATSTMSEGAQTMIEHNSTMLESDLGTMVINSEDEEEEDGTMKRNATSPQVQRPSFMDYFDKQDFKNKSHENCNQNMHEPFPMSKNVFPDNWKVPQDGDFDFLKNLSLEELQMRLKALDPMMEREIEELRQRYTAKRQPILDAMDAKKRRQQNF
# [4] = target: T2, Aurora kinase A (Homo sapiens) (UniProt O14965); experiment: Inhibition of AurA Lys2 labeling site in human A-375 cells at 0.05 uM by KiNativ Profiling analysis relative to control; assay type: cell-based
# T2 sequence (whole entry): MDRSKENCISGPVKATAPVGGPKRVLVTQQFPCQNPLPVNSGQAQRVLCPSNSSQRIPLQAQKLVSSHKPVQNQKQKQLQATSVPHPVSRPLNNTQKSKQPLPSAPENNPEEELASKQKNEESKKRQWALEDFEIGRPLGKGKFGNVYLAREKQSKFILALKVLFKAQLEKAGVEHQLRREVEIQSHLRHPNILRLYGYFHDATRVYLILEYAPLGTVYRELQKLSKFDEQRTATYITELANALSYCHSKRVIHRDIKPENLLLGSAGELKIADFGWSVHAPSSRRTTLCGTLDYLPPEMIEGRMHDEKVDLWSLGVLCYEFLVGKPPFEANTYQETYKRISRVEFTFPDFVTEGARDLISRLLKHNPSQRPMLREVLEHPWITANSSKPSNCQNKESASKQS
# [5] = target: Phosphatidylinositol 4,5-bisphosphate 3-kinase catalytic subunit beta isoform (Homo sapiens) (UniProt P42338); experiment: Inhibition of PIK3CB (unknown origin) at 10 uM by Ambit Kinomescan binding assay
# Sequence of Phosphatidylinositol 4,5-bisphosphate 3-kinase catalytic subunit beta isoform (Homo sapiens) (P42338 whole entry, looked up, canonical isoform): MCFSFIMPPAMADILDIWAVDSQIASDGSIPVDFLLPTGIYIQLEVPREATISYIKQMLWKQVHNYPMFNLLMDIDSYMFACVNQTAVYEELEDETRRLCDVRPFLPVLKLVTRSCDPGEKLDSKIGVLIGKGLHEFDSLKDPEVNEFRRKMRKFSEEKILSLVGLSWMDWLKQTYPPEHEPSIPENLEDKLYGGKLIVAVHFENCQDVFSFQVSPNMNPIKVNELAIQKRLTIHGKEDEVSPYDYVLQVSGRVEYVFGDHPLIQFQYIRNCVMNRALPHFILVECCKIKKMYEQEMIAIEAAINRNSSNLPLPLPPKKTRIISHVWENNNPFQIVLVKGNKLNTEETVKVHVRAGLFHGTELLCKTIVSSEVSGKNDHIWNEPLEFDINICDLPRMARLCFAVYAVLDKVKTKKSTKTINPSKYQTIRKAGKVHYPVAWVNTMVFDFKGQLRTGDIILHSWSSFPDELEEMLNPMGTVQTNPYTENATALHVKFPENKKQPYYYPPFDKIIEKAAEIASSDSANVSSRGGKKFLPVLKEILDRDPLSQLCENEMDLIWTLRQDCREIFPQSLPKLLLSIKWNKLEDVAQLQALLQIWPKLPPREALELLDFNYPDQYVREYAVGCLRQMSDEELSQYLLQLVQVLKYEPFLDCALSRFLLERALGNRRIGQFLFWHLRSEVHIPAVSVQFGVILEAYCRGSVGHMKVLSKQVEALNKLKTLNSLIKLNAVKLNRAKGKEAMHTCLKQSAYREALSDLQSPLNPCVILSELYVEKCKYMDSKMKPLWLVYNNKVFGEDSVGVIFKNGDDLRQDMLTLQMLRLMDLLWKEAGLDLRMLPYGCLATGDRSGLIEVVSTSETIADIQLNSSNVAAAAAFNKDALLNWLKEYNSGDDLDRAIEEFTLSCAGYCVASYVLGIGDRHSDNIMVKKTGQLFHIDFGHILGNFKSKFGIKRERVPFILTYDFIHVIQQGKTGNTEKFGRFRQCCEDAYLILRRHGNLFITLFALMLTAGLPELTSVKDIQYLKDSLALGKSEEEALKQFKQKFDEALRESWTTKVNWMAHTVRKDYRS
# [6] = target: T3, Serine/threonine-protein kinase Chk1 (Homo sapiens) (UniProt O14757); experiment: Inhibition of CHK1 Lys2 labeling site harbouring DIKPENLLLDERDNLK in human A-375 cells at 0.5 uM by KiNativ Profiling analysis relative to control; assay type: cell-based
# T3 sequence (whole entry): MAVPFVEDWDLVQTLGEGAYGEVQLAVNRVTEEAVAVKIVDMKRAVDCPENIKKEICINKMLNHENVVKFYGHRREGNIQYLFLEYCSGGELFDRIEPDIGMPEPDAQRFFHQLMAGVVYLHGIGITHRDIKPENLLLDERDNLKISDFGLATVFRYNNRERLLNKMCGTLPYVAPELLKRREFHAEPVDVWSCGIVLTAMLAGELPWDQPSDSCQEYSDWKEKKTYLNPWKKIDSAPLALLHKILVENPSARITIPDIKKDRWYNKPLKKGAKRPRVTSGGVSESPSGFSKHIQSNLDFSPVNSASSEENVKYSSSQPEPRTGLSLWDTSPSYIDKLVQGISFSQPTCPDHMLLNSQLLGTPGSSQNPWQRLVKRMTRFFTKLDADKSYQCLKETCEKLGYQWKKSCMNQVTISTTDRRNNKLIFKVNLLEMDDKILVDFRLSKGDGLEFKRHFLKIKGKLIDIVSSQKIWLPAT
# [7] = target: T4, Kinase suppressor of Ras 1 (Homo sapiens) (UniProt Q8IVT5); experiment: Inhibition of KSR1 ACT labeling site harbouring SKNVFYDNGKVVITDFGLFGISGVVR in human A-375 cells at 0.05 uM by KiNativ Profiling analysis relative to control; assay type: cell-based
# T4 sequence (whole entry): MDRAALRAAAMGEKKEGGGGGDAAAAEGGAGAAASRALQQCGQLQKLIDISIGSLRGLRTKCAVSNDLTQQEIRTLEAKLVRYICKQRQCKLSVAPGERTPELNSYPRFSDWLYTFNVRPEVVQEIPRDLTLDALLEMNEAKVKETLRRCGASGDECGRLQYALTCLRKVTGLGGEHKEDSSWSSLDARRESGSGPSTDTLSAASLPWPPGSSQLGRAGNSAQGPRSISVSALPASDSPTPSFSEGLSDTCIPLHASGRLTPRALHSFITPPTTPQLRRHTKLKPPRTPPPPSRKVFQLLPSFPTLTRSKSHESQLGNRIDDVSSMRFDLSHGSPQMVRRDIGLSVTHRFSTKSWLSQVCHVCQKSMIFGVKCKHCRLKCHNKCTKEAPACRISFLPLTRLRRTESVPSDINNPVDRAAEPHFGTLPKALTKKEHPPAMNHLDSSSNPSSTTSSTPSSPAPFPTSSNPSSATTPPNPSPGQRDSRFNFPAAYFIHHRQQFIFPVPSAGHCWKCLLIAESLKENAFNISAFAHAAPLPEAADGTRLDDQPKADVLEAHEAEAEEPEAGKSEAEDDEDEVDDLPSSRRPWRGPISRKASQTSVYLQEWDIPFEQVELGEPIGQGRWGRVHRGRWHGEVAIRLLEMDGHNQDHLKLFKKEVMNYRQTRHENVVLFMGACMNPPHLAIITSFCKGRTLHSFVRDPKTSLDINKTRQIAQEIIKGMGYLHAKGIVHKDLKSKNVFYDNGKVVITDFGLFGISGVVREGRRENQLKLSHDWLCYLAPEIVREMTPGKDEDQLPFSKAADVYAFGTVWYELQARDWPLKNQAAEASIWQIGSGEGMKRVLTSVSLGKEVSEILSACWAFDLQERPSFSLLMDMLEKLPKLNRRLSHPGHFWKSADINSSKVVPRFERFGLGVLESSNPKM
smiles,measurement,setting,value
CNc1cc(Oc2cc(C(=O)Nc3cc(N4CCN(C)CC4)cc(C(F)(F)F)c3)ccc2C)ncn1,inhibition at 1 µM,[1],5.3%
CCN1CCN(Cc2ccc(NC(=O)c3ccc(C)c(/C=C/c4cnc5[nH]ccc5c4OC)c3)cc2C(F)(F)F)CC1,inhibition,[2],81%
same,inhibition,[3],8.2%
same,inhibition,[4],-9.1%
CCN1CCN(Cc2ccc(NC(=O)c3ccc(C)c(Oc4ccnc5[nH]ccc45)c3)cc2C(F)(F)F)CC1,inhibition,[5],inactive
same,inhibition,[6],41.1%
same,inhibition,[7],-2.6%
